In patent publication US10835535B2, “Certain protein kinase inhibitors” (Shanghai Fochon Pharmaceutical Co., Ltd., priority 2016, dated 2020):
pIC50: −log10 of the molar value.

Columns and labels:
JEKO-1 cells = assay: Cell proliferation assay (MTS) in JEKO-1 cells; assay type: cell-based; conditions: Homo sapiens, 48 h
Text: (§1) MTS testing kit was purchased from Promega. The DMEM, Fetal bovine serum and Penicillin-Streptomycin were purchased from Gibco. Dimethyl sulfoxide (DMSO) was purchased from Sigma.
(§2) To investigate whether a compound is able to inhibit the activity of CDK4/6 in cells, mechanism-based assays using BE2C (ATCC® number: CRL-2268) or JEKO-1 (ATCC® number: CRL-3006) cell were developed. In the assay, inhibition of CDK4/6 was detected by the inhibition of BE2C or JEKO-1 cell cells proliferation. BE2C or JEKO-1 cell cells were cultured in culture flasks to 40-80% confluence in DMEM plus 10% fetal bovine serum. Cells were collected and plated onto 96-well plates at desired cell density (BE2C: 3000 cells/well; JEKO-1: 30000 cells/well). Plates were incubated overnight at 37° C., with 5% CO2 to adhere. Compounds were added to the plates, the final compound concentrations were 10000, 3333, 1111, […], 123.5, 41.2, 13.7, 4.6 and 1.5 nM. Place plates at 37° C., with 5% CO2 for 48 h. After removing the medium, 20 μl MTS/100 μl medium mixture solution were added to each well and incubate the plates for exactly 2 hours. Stop the reaction by adding 25 μl 10% SDS per well. Measure absorbance at 490 nm and 650 nm (reference wavelength). IC50 was calculated using GraphPad Prism 5.0.
(§3) Select compounds prepared as described above were assayed according to the biological procedures described herein. “+++” stands for IC50 value between greater than about 10 nM to about 100 nM. “++” stands for IC50 value between greater than about 100 nM to about 1 μM. “+” stands for IC50 value greater than 1 μM.

[1] = Pharmacokinetic properties in dogs; assay type: in vivo; conditions: dog, po; male Beagle dogs, 3 mg/kg p.o., plasma
Procedure: Each test compounds was suspended in 0.5% methylcellulose (400 cP, w/v) in water.
Grouping male Beagle dogs was administered with test compound at a dose of 3 mg/kg by oral. After administering, blood samples were collected at time points of 0.25, 0.50, 1.0, 2.0, 4.0, 8.0 and 24.0 h. Standard curve was plotted based on concentrations of the samples in a suitable range, and the concentration of test compounds in plasma samples were determined by using LC-MS/MS. Pharmacokinetic parameters were calculated according to drug concentration-time curve using a non-compartmental method by Phoenix WinNonLin 6.3 software.

COLO205 xenograft tumors = assay: Tumor growth inhibition in COLO205 xenograft tumors; assay type: in vivo, mice; conditions: for TGI %: TGI = (1−T/C)×100%
Procedure: COLO205 cells were cultured with RPMI-1640 medium containing 10% fetal bovine serum (FBS) at 37° C. in 5% CO^2 incubator. Logarithmic growth phase cells were collected. COLO205 cells (5×10^6 in 200 μL PBS) were implanted subcutaneously into the left flank region, and tumor growth was monitored. Tumor volume (V) was estimated from the length (l) and width (w) of the tumor using the following formula: V=1/2×l×w^2. Treatment started when average tumor size was 100-200 mm^3.
The dosage and dosage regimen were as shown table 2. Tumor volumes and mice weight were measured 2 to 3 times every week.
Drug efficacy was assessed as Tumor Growth Inhibition (TGI) and T/C ratio. TGI was defined as (1−T/C)×100%, wherein T/C (%) presented the ratio of the change in mean tumor volume of the treated group and of the control group.

BE2C cells = assay: Cell proliferation assay (MTS) in BE2C cells; assay type: cell-based; conditions: Homo sapiens, BE(2)-C, 48 h
Text: as §1, §2, §3

AUC(0-inf) [1] [ng·h/mL] | AUC(0-t) [1] [ng·h/mL] | Cmax [1] [ng/mL] | half-life [1] [h] | SMILES | pIC50 (JEKO-1 cells) | T/C % (COLO205 xenograft tumors; 30 mg/kg PO QD × 14 days) [%] | TGI % (COLO205 xenograft tumors; 30 mg/kg PO QD × 14 days) [%] | pIC50 (BE2C cells) | T/C % (COLO205 xenograft tumors; 60 mg/kg PO QD × 14 days) [%] | TGI % (COLO205 xenograft tumors; 60 mg/kg PO QD × 14 days) [%]
 |  |  |  | CN(C)C(=O)c1sc2cnc(Nc3ccc(N4CCN(C5CCNCC5)CC4)cn3)nc2c1C1CCCC1 [Example 1, 7-cyclopentyl-N,N-dimethyl-2-((5-(4-(piperidin-4-yl)piperazin-1-yl)pyridin-2-yl)amino)thieno[3,2-d]pyrimidine-6-carboxamide] | 6.00 to 7.00 |  |  |  |  | 
7010 | 2500 | 127 | 26 | CCN1CCC(N2CCN(c3ccc(Nc4ncc5sc(C(=O)N(C)C)c(C6CCCC6)c5n4)nc3)CC2)CC1 [Example 2, 7-cyclopentyl-2-((5-(4-(1-ethylpiperidin-4-yl)piperazin-1-yl)pyridin-2-yl)amino)-N,N-dimethylthieno[3,2-d]pyrimidine-6-carboxamide] | 6.00 to 7.00 | 0.88 | 99.12 | 7.00 to 8.00 |  | 
 |  |  |  | CN1CCC(N2CCN(c3ccc(Nc4ncc5sc(C(=O)N(C)C)c(C6CCCC6)c5n4)nc3)CC2)CC1 [Example 3, 7-cyclopentyl-N,N-dimethyl-2-((5-(4-(1-methylpiperidin-4-yl)piperazin-1-yl)pyridin-2-yl)amino)thieno[3,2-d]pyrimidine-6-carboxamide] | 6.00 to 7.00 |  |  | 7.00 to 8.00 |  | 
 |  |  |  | CN(C)C(=O)c1sc2cnc(Nc3ccc(N4CCC(N5CCNCC5)CC4)cn3)nc2c1C1CCCC1 [Example 4, 7-cyclopentyl-N,N-dimethyl-2-((5-(4-(piperazin-1-yl)piperidin-1-yl)pyridin-2-yl)amino)thieno[3,2-d]pyrimidine-6-carboxamide] |  |  |  | 6.00 to 7.00 |  | 
7520 | 4660 | 312 | 16.1 | CN1CCN(C2CCN(c3ccc(Nc4ncc5sc(C(=O)N(C)C)c(C6CCCC6)c5n4)nc3)CC2)CC1 [Example 5, 7-cyclopentyl-N,N-dimethyl-2-((5-(4-(4-methylpiperazin-1-yl)piperidin-1-yl)pyridin-2-yl)amino)thieno[3,2-d]pyrimidine-6-carboxamide] | 7.00 to 8.00 |  |  | 7.00 to 8.00 | −2.31 | 102.31
7340 | 5030 | 404 | 13.2 | CCN1CCN(C2CCN(c3ccc(Nc4ncc5sc(C(=O)N(C)C)c(C6CCCC6)c5n4)nc3)CC2)CC1 [Example 6, 7-cyclopentyl-2-((5-(4-(4-ethylpiperazin-1-yl)piperidin-1-yl)pyridin-2-yl)amino)-N,N-dimethylthieno[3,2-d]pyrimidine-6-carboxamide] | 7.00 to 8.00 |  |  | 7.00 to 8.00 | −2.97 | 102.97
 |  |  |  | CN(C)C(=O)c1sc2cnc(Nc3ccc(N4CCC(N5CCOCC5)CC4)cn3)nc2c1C1CCCC1 [Example 7, 7-cyclopentyl-N,N-dimethyl-2-((5-(4-morpholinopiperidin-1-yl)pyridin-2-yl)amino)thieno[3,2-d]pyrimidine-6-carboxamide] |  |  |  | 7.00 to 8.00 |  | 
103 | 83 | 36 | 5.36 | CN1CCN(c2ccc(Nc3ncc4sc(C(=O)N(C)C)c(C5CCCC5)c4n3)nc2)CC1 [Reference Compound 1, 7-cyclopentyl-N,N-dimethyl-2-(5-(4-methylpiperazin-1-yl)pyridin-2-ylamino)thieno[3,2-d]pyrimidine-6-carboxamide, reference compound] |  |  |  |  |  | 
 |  |  |  | CN(C)C(=O)c1cc2cnc(Nc3ccc(N4CCNCC4)cn3)nc2n1C1CCCC1 [Ribociclib, reference compound] |  |  |  |  | 25.6 | 74.40
